Where “and” joins values, the source holds several entries; their conditions need not be identical. Identical values can stand only once. Inconclusive results and toxic doses are left out. No stated cut-off is given here; in the data, active means T/C of 150% or more; inactive means T/C below 125%.
Test system: L1210 leukemia ip in BDF1 mice, survival T/C
Assay: NCI In Vivo Anticancer Drug Screen. Data for tumor model L1210 Leukemia (intraperitoneal) in B6D2F1 (BDF1) mice
Details: endpoint: mean survival time, higher = longer survival
Method in brief: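 Each compound was tested against a transplantable tumor grown in mice. The endpoint was survival, with treated animals benchmarked against vehicle controls as a simple ratio.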

[1] = dose: 100.0 mg/kg/injection, schedule: Q01DX009 (ip), vehicle: saline
[2] = dose: 100.0 mg/kg/injection, schedule: Q01DX001 (ip), vehicle: saline
[3] = dose: 200.0 mg/kg/injection, schedule: Q01DX001 (ip), vehicle: saline
[4] = dose: 400.0 mg/kg/injection, schedule: Q01DX001 (ip), vehicle: saline
[5] = dose: 100.0 mg/kg/injection, schedule: Q01DX001 (ip), vehicle: carboxymethylcellulose (CMC)
[6] = dose: 100.0 mg/kg/injection, schedule: Q04DX002 (ip), vehicle: saline
[7] = dose: 200.0 mg/kg/injection, schedule: Q04DX002 (ip), vehicle: saline
[8] = dose: 100.0 mg/kg/injection, schedule: Q04DX003 (ip), vehicle: Klucel (hydroxypropylcellulose) (HPC)
[9] = dose: 200.0 mg/kg/injection, schedule: Q04DX003 (ip), vehicle: Klucel (hydroxypropylcellulose) (HPC)
[10] = dose: 400.0 mg/kg/injection, schedule: Q04DX003 (ip), vehicle: Klucel (hydroxypropylcellulose) (HPC)
[11] = dose: 100.0 mg/kg/injection, schedule: Q01DX009 (ip), vehicle: saline with Tween-80
[12] = dose: 100.0 mg/kg/injection, schedule: Q04DX003 (ip), vehicle: saline with Tween-80
[13] = dose: 200.0 mg/kg/injection, schedule: Q01DX009 (ip), vehicle: saline with Tween-80
[14] = dose: 200.0 mg/kg/injection, schedule: Q04DX003 (ip), vehicle: saline with Tween-80
[15] = dose: 400.0 mg/kg/injection, schedule: Q01DX009 (ip), vehicle: saline with Tween-80
[16] = dose: 400.0 mg/kg/injection, schedule: Q04DX003 (ip), vehicle: saline with Tween-80

Measured: T/C

O=C(CCCN1CCN(c2ccccc2)CC1)c1ccc(F)cc1
inactive: dose: 12.5 mg/kg/injection, schedule: Q01DX009 (ip), vehicle: saline 122 % of control | dose: 25.0 mg/kg/injection, schedule: Q01DX009 (ip), vehicle: saline 106 % of control | dose: 50.0 mg/kg/injection, schedule: Q01DX009 (ip), vehicle: saline 114 % of control | [1] 111 % of control | dose: 200.0 mg/kg/injection, schedule: Q01DX009 (ip), vehicle: saline 103 % of control

N#C/C(=N\O)C(N)=O
inactive: [2] 102 % of control and 103 % of control | [3] 98 % of control and 107 % of control | [4] 93 % of control and 107 % of control

CC(C)c1cc2c(cc1O)C1(C)CCCC(C)(C(=O)O)C1CC2 (stereo unspecified)
inactive: dose: 50.0 mg/kg/injection, schedule: Q04DX003 (ip), vehicle: acetone 87 % of control | dose: 100.0 mg/kg/injection, schedule: Q01DX001 (ip), vehicle: acetone 97 % of control | dose: 100.0 mg/kg/injection, schedule: Q04DX003 (ip), vehicle: acetone 90 % of control | dose: 200.0 mg/kg/injection, schedule: Q01DX001 (ip), vehicle: acetone 92 % of control | dose: 200.0 mg/kg/injection, schedule: Q04DX003 (ip), vehicle: acetone 89 % of control

COc1cccc(NC(=S)NN)c1
inactive: dose: 12.5 mg/kg/injection, schedule: Q04DX002 (ip), vehicle: Klucel (hydroxypropylcellulose) (HPC) 92 % of control | dose: 25.0 mg/kg/injection, schedule: Q04DX002 (ip), vehicle: Klucel (hydroxypropylcellulose) (HPC) 117 % of control

O=C(NC(=S)Nc1ccccc1)c1cccc(Br)c1
inactive: dose: 75.0 mg/kg/injection, schedule: Q01DX001 (ip), vehicle: carboxymethylcellulose (CMC) 90 % of control | dose: 150.0 mg/kg/injection, schedule: Q01DX001 (ip), vehicle: carboxymethylcellulose (CMC) 88 % of control | dose: 300.0 mg/kg/injection, schedule: Q01DX001 (ip), vehicle: carboxymethylcellulose (CMC) 96 % of control

COc1ccc(CCNC(=O)Cc2ccc(O)cc2)cc1OC
inactive: [5] 100 % of control | dose: 200.0 mg/kg/injection, schedule: Q01DX001 (ip), vehicle: carboxymethylcellulose (CMC) 102 % of control | dose: 400.0 mg/kg/injection, schedule: Q01DX001 (ip), vehicle: carboxymethylcellulose (CMC) 96 % of control

CC(=O)NC(C)C(N)=O (stereo unspecified)
inactive: [6] 108 % of control | [7] 105 % of control | dose: 400.0 mg/kg/injection, schedule: Q04DX002 (ip), vehicle: saline 96 % of control

O=c1[nH]cnc2nc(SCc3ccccc3NCBr)[nH]c12
inactive: dose: 31.3 mg/kg/injection, schedule: Q04DX002 (ip), vehicle: Klucel (hydroxypropylcellulose) (HPC) 91 % of control | dose: 62.5 mg/kg/injection, schedule: Q04DX002 (ip), vehicle: Klucel (hydroxypropylcellulose) (HPC) 91 % of control | dose: 125.0 mg/kg/injection, schedule: Q04DX002 (ip), vehicle: Klucel (hydroxypropylcellulose) (HPC) 88 % of control

C1CC2CC1CC1C3CC4CCC(C4)C3OC21 (stereo unspecified)
inactive: dose: 50.0 mg/kg/injection, schedule: Q04DX002 (ip), vehicle: saline with Tween-80 98 % of control | dose: 100.0 mg/kg/injection, schedule: Q04DX002 (ip), vehicle: saline with Tween-80 102 % of control | dose: 200.0 mg/kg/injection, schedule: Q04DX002 (ip), vehicle: saline with Tween-80 91 % of control | dose: 400.0 mg/kg/injection, schedule: Q04DX002 (ip), vehicle: saline with Tween-80 95 % of control

CCOc1cc[n+]([O-])cc1C
inactive: dose: 50.0 mg/kg/injection, schedule: Q01DX001 (ip), vehicle: carboxymethylcellulose (CMC) 102 % of control | [5] 98 % of control

O=CNC(CSC(=O)c1ccccc1)C(=O)O (stereo unspecified)
inactive: dose: 100.0 mg/kg/injection, schedule: Q01DX009 (ip), vehicle: Klucel (hydroxypropylcellulose) (HPC) 101 % of control | [8] 97 % of control | dose: 200.0 mg/kg/injection, schedule: Q01DX009 (ip), vehicle: Klucel (hydroxypropylcellulose) (HPC) 101 % of control | [9] 97 % of control | [10] 94 % of control

O=C(O)CNC(=O)c1ccc([N+](=O)[O-])cc1
inactive: [11] 92 % of control | [12] 103 % of control | [13] 92 % of control | [14] 98 % of control | [15] 92 % of control | [16] 98 % of control

ClCCCN1Cc2ccccc2CCc2ccccc2C1
inactive: [8] 102 % of control | [9] 100 % of control | [10] 107 % of control

CC(=O)OCC(=O)[C@@]1(O)CC[C@H]2[C@@H]3CCC4=CC(=O)C=C[C@]4(C)[C@@]3(F)[C@@H](O)C[C@@]21C
inactive: dose: 12.5 mg/kg/injection, schedule: Q01DX009 (ip), vehicle: saline with Tween-80 117 % of control | dose: 25.0 mg/kg/injection, schedule: Q01DX009 (ip), vehicle: saline with Tween-80 101 % of control | dose: 50.0 mg/kg/injection, schedule: Q01DX009 (ip), vehicle: saline with Tween-80 96 % of control

CCNP(=S)(OCC)OCC
inactive: dose: 75.0 mg/kg/injection, schedule: Q01DX001 (ip), vehicle: saline 98 % of control | dose: 150.0 mg/kg/injection, schedule: Q01DX001 (ip), vehicle: saline 89 % of control | dose: 300.0 mg/kg/injection, schedule: Q01DX001 (ip), vehicle: saline 96 % of control

CCN(CC)CC(=O)NCC(CCN(C)C)(c1ccc2ccccc2c1)C(C)C (stereo unspecified)
inactive: dose: 25.0 mg/kg/injection, schedule: Q04DX003 (ip), vehicle: saline 99 % of control | dose: 50.0 mg/kg/injection, schedule: Q04DX002 (ip), vehicle: saline 97 % of control | dose: 50.0 mg/kg/injection, schedule: Q04DX003 (ip), vehicle: saline 94 % of control | [1] 98 % of control | [6] 106 % of control | dose: 100.0 mg/kg/injection, schedule: Q04DX003 (ip), vehicle: saline 97 % of control | [7] 86 % of control

CCCCCCCCCCCCCCCCCCNC(=O)Nc1ccc(C)cc1
inactive: dose: 100.0 mg/kg/injection, schedule: Q01DX009 (sc), vehicle: olive oil, sesame oil, peanut oil 112 % of control | dose: 100.0 mg/kg/injection, schedule: Q04DX003 (sc), vehicle: olive oil, sesame oil, peanut oil 114 % of control | dose: 200.0 mg/kg/injection, schedule: Q01DX009 (sc), vehicle: olive oil, sesame oil, peanut oil 106 % of control | dose: 200.0 mg/kg/injection, schedule: Q04DX003 (sc), vehicle: olive oil, sesame oil, peanut oil 104 % of control | dose: 400.0 mg/kg/injection, schedule: Q01DX009 (sc), vehicle: olive oil, sesame oil, peanut oil 106 % of control | dose: 400.0 mg/kg/injection, schedule: Q04DX003 (sc), vehicle: olive oil, sesame oil, peanut oil 98 % of control

COC(=O)c1c(C(=O)OC)c2c(-c3ccccc3)cc3cccc1n32
inactive: [8] 94 % of control | [9] 102 % of control | [10] 94 % of control

CC(C)(O)c1ccccc1
inactive: [2] 105 % of control | [11] 88 % of control | [12] 93 % of control | [3] 100 % of control | [13] 90 % of control | [14] 89 % of control | [4] 103 % of control | [15] 92 % of control | [16] 91 % of control

Cc1ccnc(NS(=O)(=O)c2ccc(N=Nc3ccc(O)c4ncccc34)cc2)n1
inactive: [2] 108 % of control | [3] 100 % of control | [4] 97 % of control
